According to US10448639B2, “Fungicidal pyrazoles” (FMC CORPORATION, priority 2009, dated 2019):
Like-named read-outs stand apart in the source and are kept apart here. Marks after values point to notes of the source that are not given here.

Key:
[1] = system: Alternaria solani; assay: Test C: tomato early blight, preventive spray on tomato seedlings, visual disease rating; settings: for Test C disease control rating / Test C rating (% disease control): 100 = 100% disease control; for Test C disease control rating: 0 = no disease control relative to controls; for pest or weed control at 200 µg/mL: Alternaria solani, in Solanum lycopersicum, 168 h; for Test C rating (% disease control): preventive spray, 0 = no control
[2] = system: Puccinia recondita f. sp. tritici; assay: Test I: wheat leaf rust, preventive spray on wheat seedlings, visual disease rating; settings: for Test I disease control rating: sprayed the day before inoculation, 0 = no disease control relative to controls; for Test I disease control rating / Test I rating (% disease control): 100 = 100% disease control; for pest or weed control at 200 µg/mL: 192 h; for Test I rating (% disease control): preventive spray, 0 = no control
Text: (§1) General protocol for preparing test suspensions for Tests A-J: the test compounds were first dissolved in acetone in an amount equal to 3% of the final volume and then suspended at the desired concentration (in ppm) in acetone and purified water (50/50 mix by volume) containing 250 ppm of the surfactant Trem® 014 (polyhydric alcohol esters). The resulting test suspensions were then used in Tests A-J. Spraying a 200 ppm test suspension to the point of run-off on the test plants was the equivalent of a rate of 500 g/ha. Unless otherwise indicated, the rating values indicate a 200 ppm test suspension was used. (An asterisk “*” next to the rating value indicates a 40 ppm test suspension was used.)
The test suspension was sprayed to the point of run-off on wheat seedlings. The following day the seedlings were inoculated with a spore suspension of Puccinia recondita f. sp. tritici (the causal agent of wheat leaf rust) and incubated in a saturated atmosphere at 20° C. for 24 h, and then moved to a growth chamber at 20° C. for 7 days, after which time visual disease ratings were made
A dash (-) indicates no test results.

[3] = system: Puccinia recondita f. sp. tritici; assay: Test H: wheat leaf rust, curative spray on inoculated wheat seedlings, visual disease rating; settings: for Test H disease control rating: sprayed after inoculation, 100 = 100% disease control, 0 = no disease control relative to controls; for pest or weed control at 200 µg/mL: 144 h
[4] = system: Erysiphe graminis f sp. tritici; assay: Test J: wheat powdery mildew, preventive spray on wheat seedlings, visual disease rating; settings: for Test J disease control rating: sprayed the day before inoculation, 0 = no disease control relative to controls; for Test J disease control rating / Test J rating (% disease control): 100 = 100% disease control; for pest or weed control at 200 µg/mL: Blumeria graminis, in Triticum aestivum, 192 h; for Test J rating (% disease control): preventive spray, 0 = no control
[5] = system: Botrytis cinerea; assay: Test B: tomato Botrytis, preventive spray on tomato seedlings, visual disease rating; settings: for Test B disease control rating / Test B rating (% disease control): 100 = 100% disease control; for Test B disease control rating: 0 = no disease control relative to controls; for pest or weed control at 200 µg/mL: Botrytis cinerea, in Solanum lycopersicum, 120 h; for Test B rating (% disease control): preventive spray, 0 = no control
[6] = system: Septoria nodorum; assay: Test F: Septoria glume blotch, preventive spray on wheat seedlings, visual disease rating; settings: for Test F disease control rating / Test F rating (% disease control): Septoria glume blotch on wheat, 100 = 100% disease control; for Test F disease control rating: 0 = no disease control relative to controls; for pest or weed control at 200 µg/mL: Parastagonospora nodorum, in Triticum aestivum, 192 h; for Test F rating (% disease control): preventive spray, 0 = no control
Text: as §1
The test suspension was sprayed to the point of run-off on wheat seedlings. The following day the seedlings were inoculated with a spore suspension of Septoria nodorum (the causal agent of Septoria glume blotch) and incubated in a saturated atmosphere at 24° C. for 48 h, and then moved to a growth chamber at 20° C. for 6 days, after which time visual disease ratings were made.

[7] = system: Septoria tritici; assay: Test G: wheat leaf blotch, preventive spray on wheat seedlings, visual disease rating; settings: wheat leaf blotch, preventive spray; 100 = 100% disease control, 0 = no control
[8] = read-out: Test C disease control rating
[9] = read-out: Test I disease control rating
[10] = read-out: Test H disease control rating
[11] = read-out: Test J disease control rating
[12] = read-out: Test B disease control rating
[13] = read-out: Test F disease control rating

## Cc1nn(C)c(C(O)c2ccc(F)cc2)c1-c1ccc(F)cc1Cl (racemic) [compound 350]
[1]; tomato early blight
  Test C disease control rating: 9%
[2]; wheat leaf rust
  Test I disease control rating: 96%
[3]; wheat leaf rust
  Test H disease control rating: 9%
[4]; wheat powdery mildew
  Test J disease control rating: 0%
[5]; tomato Botrytis
  Test B disease control rating: 99%
[6]
  Test F disease control rating: 0%

## Cc1nn(C)c(C(O)c2c(F)ccc(F)c2F)c1-c1ccc(F)cc1Cl (racemic) [compound 356]
[1]; tomato early blight
  Test C disease control rating: 0%
[2]; wheat leaf rust
  Test I disease control rating: 100%
[3]; wheat leaf rust
  Test H disease control rating: 100%
[4]; wheat powdery mildew
  Test J disease control rating: 0%
[5]; tomato Botrytis
  Test B disease control rating: 100%
[6]
  Test F disease control rating: 0%

## Cc1nn(C)c(Oc2ccc(C#N)cc2F)c1-c1ccc(F)cc1Br [Compound 284, 4-[[4-(2-bromo-4-fluorophenyl)-1,3-dimethyl-1H-pyrazol-5-yl]oxy]-3-fluorobenzonitrile]
[1]; read-out: Test C rating (% disease control)
  pest or weed control at 200 µg/mL: 99%
[2]; read-out: Test I rating (% disease control)
  pest or weed control at 200 µg/mL: 100%
[3]; read-out: Test H rating (% disease control)
  pest or weed control at 200 µg/mL: 28%
[4]; read-out: Test J rating (% disease control)
  pest or weed control at 200 µg/mL: 100%
[5]; read-out: Test B rating (% disease control)
  pest or weed control at 200 µg/mL: 99%
[6]; read-out: Test F rating (% disease control)
  pest or weed control at 200 µg/mL: 100%

## Cc1nn(C)c(Nc2c(F)cc(Cl)cc2F)c1-c1ccc(F)cc1Cl [Compound 286, N-(4-chloro-2,6-difluorophenyl)-4-(2-chloro-4-fluorophenyl)-1,3-dimethyl-1H-pyrazole-5-amine]
[1]; tomato early blight, rating marked with asterisk (*), meaning not given
  Test C rating (% disease control), marked *: 85* %
[2]; wheat leaf rust, preventive, rating marked with asterisk (*), meaning not given
  Test I rating (% disease control), marked *: 100* %
[3]; wheat leaf rust, curative, rating marked with asterisk (*), meaning not given
  Test H rating (% disease control), marked *: 100* %
[4]; wheat powdery mildew, rating marked with asterisk (*), meaning not given
  Test J rating (% disease control), marked *: 100* %
[5]; tomato Botrytis, rating marked with asterisk (*), meaning not given
  Test B rating (% disease control), marked *: 98* %
[6]; Septoria glume blotch, rating marked with asterisk (*), meaning not given
  Test F rating (% disease control), marked *: 60* %

## Cc1nn(C)c(C(O)c2ccc(F)cc2F)c1-c1ccc(F)cc1Cl (stereo not drawn) [Compound 351, 4-(2-chloro-4-fluorophenyl)-α-(2,4-difluorophenyl)-1,3-dimethyl-1H-pyrazole-5-methanol]
[1]; [8]
  pest or weed control at 200 µg/mL: 99%
[2]; [9]
  pest or weed control at 200 µg/mL: 100%
[3]; [10]
  pest or weed control at 200 µg/mL: 96%
[4]; [11]
  pest or weed control at 200 µg/mL: 99%
[5]; [12]
  pest or weed control at 200 µg/mL: 100%
[6]; [13]
  pest or weed control at 200 µg/mL: 92%

## Cc1nn(C)c(Nc2c(F)cc(Cl)cc2Cl)c1-c1ccc(F)cc1Cl [Compound 367, 4-(2-chloro-4-fluorophenyl)-N-(2,4-dichloro-6-fluorophenyl)-1,3-dimethyl-1H-pyrazol-5-amine]
[1]; [8]
  pest or weed control at 200 µg/mL: 100%
[2]; [9]
  pest or weed control at 200 µg/mL: 100%
[3]; [10]
  pest or weed control at 200 µg/mL: 100%
[4]; [11]
  pest or weed control at 200 µg/mL: 100%
[5]; [12]
  pest or weed control at 200 µg/mL: 100%
[6]; [13]
  pest or weed control at 200 µg/mL: 100%

## Cc1nn(C)c(Nc2c(Cl)cc(F)cc2Cl)c1-c1ccc(F)cc1Cl [Compound 369, 4-(2-chloro-4-fluorophenyl)-N-(2,6-dichloro-4-fluorophenyl)-1,3-dimethyl-1H-pyrazol-5-amine]
[1]; [8]
  pest or weed control at 200 µg/mL: 66%
[2]; [9]
  pest or weed control at 200 µg/mL: 100%
[3]; [10]
  pest or weed control at 200 µg/mL: 17%
[4]; [11]
  pest or weed control at 200 µg/mL: 99%
[5]; [12]
  pest or weed control at 200 µg/mL: 100%
[6]; [13]
  pest or weed control at 200 µg/mL: 0%

## Cc1nn(C)c(Nc2ccc(Cl)c(F)c2)c1-c1c(F)cc(F)cc1F [compound 14]
[1]; tomato early blight
  Test C rating (% disease control): 0%
[2]; wheat leaf rust
  Test I rating (% disease control): 99%
[7]
  Test G rating (% disease control): 99%
[4]; wheat powdery mildew
  Test J rating (% disease control): 98%
[5]; tomato Botrytis
  Test B rating (% disease control): 98%
[6]
  Test F rating (% disease control): 0%

## COc1ccc(-c2c(C)nn(C)c2Oc2ccc(Cl)cc2)c(F)c1 [compound 15]
[1]; tomato early blight
  Test C rating (% disease control): 67%
[2]; wheat leaf rust
  Test I rating (% disease control): 98%
[7]
  Test G rating (% disease control): 99%
[4]; wheat powdery mildew
  Test J rating (% disease control): 99%
[5]; tomato Botrytis
  Test B rating (% disease control): 99%
[6]
  Test F rating (% disease control): 73%

## COc1ccc(Oc2c(-c3ccc(F)cc3Cl)c(C)nn2C)c(F)c1 [compound 21]
[1]; tomato early blight
  Test C rating (% disease control): 100%
[2]; wheat leaf rust
  Test I rating (% disease control): 100%
[4]; wheat powdery mildew
  Test J rating (% disease control): 99%
[5]; tomato Botrytis
  Test B rating (% disease control): 98%
[6]
  Test F rating (% disease control): 97%

## Cc1nn(C)c(Nc2ccc(Cl)c(Cl)c2)c1-c1c(F)cc(C#N)cc1F [compound 123]
[1]; tomato early blight
  Test C rating (% disease control): 0%
[2]; wheat leaf rust
  Test I rating (% disease control): 80%
[7]
  Test G rating (% disease control): 99%
[4]; wheat powdery mildew
  Test J rating (% disease control): 0%
[5]; tomato Botrytis
  Test B rating (% disease control): 99%
[6]
  Test F rating (% disease control): 40%
